According to US20070099915A1, “INHIBITORS OF THE HIV INTEGRASE ENZYME” (PFIZER INC., priority 2005, published 2007):
Read-outs that look alike come from different tables or passages of the source.

What was measured:
[1] = target: T1, Full-length wild type HIV-1 integrase (SF1) (Human immunodeficiency virus type 1 group M subtype B, UniProt P04585); assay: Integrase strand-transfer scintillation proximity assay; format: biochemical
T1 construct: made in house; host or cells: E. coli BL21 (DE3)
From the text: The annealed product represents preprocessed viral ds-DNA derived from the LTR U5 sequence of the viral genome. A ds-DNA control to test for non-specific interactions was made using a 3′ di-deoxy derivative of oligonucleotide #1 annealed to oligonucleotide #2. The CA overhang at the 5′ end of the non-biotinylated strand of the ds-DNA was created artificially by using a complimentary DNA oligonucleotide shortened by 2 base pairs. This configuration eliminates the requisite 3′ processing step of the integrase enzyme prior to the strand-transfer mechanism.
The annealed product had overhanging 3′ ends of poly(dA). […] The radiolabeled product was purified using a NENSORB cartridge and stored in stabilized aqueous solution (PerkinElmer).
Reagents: Streptavidin-coated polyvinyltoluene (PVT) SPA beads were purchased from Amersham Biosciences (Piscataway, N.J.). Cesium chloride was purchased from Shelton Scientific, Inc. (Shelton, Conn.). White, polystyrene, flat-bottom, non-binding surface, 96-well plates were purchased from Corning. All other buffer components were purchased from Sigma (St. Louis, Mo.) unless otherwise indicated.
Enzyme Construction: Full-length wild type HIV-1 integrase (SF1) sequence (amino acids 1-289) was constructed in a pET24a vector (Novagen, Madison, Wis.).
Enzyme Purification: Full length wild-type HIV Integrase was expressed in E. coli BL21 (DE3) cells and induced with 1 mM isopropyl-1 thio-β-D-galactopyranoside (IPTG) when cells reached an optical density between 0.8-1.0 at 600 nm. Cells were lysed by microfluidation in 50 mM HEPES pH 7.0, 75 mM NaCl, 5 mM DTT, 1 mM 4-(2-Aminoethyl)benzenesulfonylfluoride HCl (AEBSF). Lysate was then centrifuged 20 minutes at 11 k rpm in GSA rotor in Sorvall RC-5B at 4° C. Supernant was discarded and pellet resuspended in 50 mM HEPES pH 7.0, 750 mM NaCl, 5 mM DTT, 1 mM AEBSF and homogenized in a 40 mL Dounce homogenizer for 20 minutes on ice. Homogenate was then centrifuged 20 minutes at 11 k rpm in SS34 rotor in Sorvall RC-5B at 4° C. Supernant was discarded and pellet resuspended in 50 mM HEPES pH 7.0, 750 mM NaCl, 25 mM CHAPS, 5 mM DTT, 1 mM AEBSF. Preparation was then centrifuged 20 minutes at 11 k rpm in SS34 rotor in Sorvall RC-5B at 4° C.
Supernant was then diluted 1:1 with 50 mM HEPES pH 7.0, 25 mM CHAPS, 1 mM DTT, 1 mM AEBSF and loaded onto a Q-Sepharose column pre-equilibrated with 50 mM HEPES, pH 7.0, 375 mM NaCl, 25 mM CHAPS, 1 mM DTT, 1 mM AEBSF. The flow through peak was collected and NaCl diluted to 0.1 M with 50 mM HEPES pH 7.0, 25 mM CHAPS, 1 mM DTT, 0.5 mM AEBSF and loaded onto a SP-Sepharose column pre-equilibrated with 50 mM HEPES pH 7.0, 100 mM NaCl, 25 mM CHAPS, 1 mM DTT, 0.5 mM AEBSF. After washing the column with the equilibration buffer, a 100 to 400 mM NaCl gradient was run. The eluted integrase was concentrated and run on a S-300 gel diffusion column using 50 mM HEPES pH 7.0, 500 mM NaCl, 25 mM CHAPS, 1 mM DTT, 0.5 mM AEBSF. […] All columns were run in a 4° C. cold room.
Viral DNA Bead Preparation: Streptavidin-coated SPA beads were suspended to 20 mg/mL in 25 mM 3-morpholinopropanesulfonic acid (MOPS) (pH 7.2) and 1.0% NaN3. Biotinylated viral DNA was bound to the hydrated SPA beads in a batch process by combining […] of ds-DNA to 1 mg of suspended SPA beads (10 μL of 50 μM viral DNA to 1 mL of 20 mg/mL SPA beads). The mixture was incubated at 22° C. for a minimum of 20 min. with occasional mixing followed by centrifugation at 2500 rpm for 10 min.

[2] = tested on: HIV-1 RF virus in CEM-SS cells; assay: HIV-1 cell protection assay (XTT dye reduction); format: cell-based
Protocol: Six days later, 50 μl of XTT solution (1 mg/ml XTT tetrazolium and 20 nM phenazine methosulfate) were added to the wells and the plates were reincubated for four hours. Viability, as determined by the amount of XTT formazan produced, was quantified spectrophotometrically by absorbance at 450 nm.
Data from CPE assays were expressed as the percent of formazan produced in compound-treated cells compared to formazan produced in wells of uninfected, compound-free cells. […] The 50% cytotoxicity concentration (CC50) was calculated as the concentration of compound that decreased the percentage of formazan produced in uninfected, compound-treated cells to 50% of that produced in uninfected, compound-free cells. The therapeutic index was calculated by dividing the cytotoxicity (CC50) by the antiviral activity (EC50).

[3] = strand-transfer SPA, 246 nM integrase, 50 nM host DNA, 37° C., 50 min, read-out: IC50
[4] = Human immunodeficiency virus 1, 144 h, RF strain of HIV-1, CEM-SS cells, XTT read-out after six days, read-out: EC50
[5] = Human immunodeficiency virus 1, CEM-SS, 144 h

“3-(4-fluorobenzyl)-7-hydroxy-1-[(2-propoxyethoxy)methyl]-3,7-dihydro-6H-pyrrolo[23-c]-17-naphthyridin-6-one [Example 89]” gave an IC50 [1, 3] of 10 nM and an EC50 ([2]; RF strain of HIV-1, CEM-SS cells, XTT read-out after six days, read-out: EC50) of 1 nM.
With O=C1c2ncc3c(c(COCC(O)CO)cn3Cc3ccc(F)cc3)c2CCN1O (stereo in doubt) [Example 24, 1-({[(2S)-2,3-dihydroxypropyl]oxy}methyl)-3-(4-fluorobenzyl)-7-hydroxy-3,7,8,9-tetrahydro-6H-pyrrolo[2 3-c]-1,7-naphthyridin-6-one] the IC50 [1, 3] was 14 nM and the EC50 [2, 4] was 4 nM.
CCCCC1Cc2c(ncc3c2ccn3Cc2ccc(F)cc2)C(=O)N1O (stereo not shown) [Example 1, 8-butyl-3-(4-fluorobenzyl)-7-hydroxy-3,7,8,9-tetrahydro-6H-pyrrolo[2,3-c]-1,7-naphthyridin-6-one] gave an EC50 [2, 4] of 460 nM.
C[C@H](O)CNCc1cn(Cc2ccc(F)cc2)c2cnc3c(=O)n(O)ccc3c12 [Example 2, 3-(4-fluorobenzyl)-7-hydroxy-1-({[(2S)-2-hydroxypropyl]amino}methyl)-3,7-dihydro-6H-pyrrolo[2,3-c]-1,7-naphthyridin-6-one] showed an EC50 [2, 4] of 60.9 nM.
For CCN(C)Cc1cn(Cc2ccc(F)cc2)c2cnc3c(=O)n(O)ccc3c12 [Example 3, 1-{[ethyl(methyl)amino]methyl}-3-(4-fluorobenzyl)-7-hydroxy-3,7-dihydro-6H-pyrrolo[2,3-c]-1,7-naphthyridin-6-one], the EC50 [2, 4] was 2.5 nM.
CC(CN(C)C)NCc1cn(Cc2ccc(F)cc2)c2cnc3c(=O)n(O)ccc3c12 (stereo not shown) [Example 4, 1-({[2-(dimethylamino)-1-methylethyl]amino}methyl)-3-(4-fluorobenzyl)-7-hydroxy-3,7-dihydro-6H-pyrrolo[2,3-c]-1,7-naphthyridin-6-one] was tested, and the EC50 [2, 4] was 51 nM.
O=c1c2ncc3c(c(CN4CCC(CO)CC4)cn3Cc3ccc(F)cc3)c2ccn1O [Example 5, 3-(4-fluorobenzyl)-7-hydroxy-1-{[4-(hydroxymethyl)piperidin-1-yl]methyl}-3,7-dihydro-6H-pyrrolo[2,3-c]-1,7-naphthyridin-6-one] gave an EC50 [2, 4] of 12 nM.
Compound O=c1c2ncc3c(c(CN4CCCC4)cn3Cc3ccc(F)cc3)c2ccn1O [Example 6, 3-(4-fluorobenzyl)-7-hydroxy-1-(pyrrolidin-1-ylmethyl)-3,7-dihydro-6H-pyrrolo[2,3-c]-1,7-naphthyridin-6-one] has an EC50 [2, 4] of 5.3 nM.
CN(C)C(=O)c1cccc(-c2cn(Cc3ccc(F)cc3)c3cnc4c(=O)n(O)ccc4c23)c1 [Example 8, 3-[3-(4-fluorobenzyl)-7-hydroxy-6-oxo-6,7-dihydro-3H-pyrrolo[2,3-c]-1,7-naphthyridin-1-yl]-N,N-dimethylbenzamide] was tested, and the IC50 [1, 3] was 37 nM and the EC50 [2, 4] was 5 nM.
For O=c1c2ncc3c(c(-c4ccccn4)cn3Cc3ccc(F)cc3)c2ccn1O [Example 9, 3-(4-fluorobenzyl)-7-hydroxy-1-pyridin-2-yl-3,7-dihydro-6H-pyrrolo[2,3-c]-1,7-naphthyridin-6-one], the IC50 [1, 3] was 29 nM and the EC50 [2, 4] was 2 nM.
O=C1c2ncc3c(ccn3Cc3ccc(F)cc3)c2C=CCN1O [Example 10, 3-(4-fluorobenzyl)-7-hydroxy-7,8-dihydropyrrolo[3′,2′:4,5]pyrido[2,3-c]azepin-6(3H)-one] was tested, and the IC50 [1] was 17 nM and the EC50 [2, 4] was 0.59 nM.
CN(C)Cc1cn(Cc2ccc(F)cc2)c2cnc3c(c12)CCN(O)C3=O [Example 12, 1-[(dimethylamino)methyl]-3-(4-fluorobenzyl)-7-hydroxy-3,7,8,9-tetrahydro-6H-pyrrolo[2,3-c]-1,7-naphthyridin-6-one] showed an EC50 [2, 5] of 13 nM.
O=C1c2ncc3c(c(S(=O)(=O)N4CCCC4)cn3Cc3ccc(F)cc3)c2CCN1O [Example 13, 3-(4-fluorobenzyl)-7-hydroxyl(pyrrolidin-1-ylsulfonyl)-3,7,8,9-tetrahydro-6H-pyrrolo[2 3-c]-1,7-naphthyridin-6-one] gave an EC50 [2, 5] of 3 nM.
For O=C1c2ncc3c(c(C(=O)N4CCCC4)cn3Cc3ccc(F)cc3)c2CCN1O [Example 14, 3-(4-fluorobenzyl)-7-hydroxy-1-(pyrrolidin-1-ylcarbonyl)-3,7,8,9-tetrahydro-6H-pyrrolo[2,3-c]-1,7-naphthyridin-6-one], the IC50 [1, 3] was 16 nM and the EC50 [2, 5] was 7 nM.
Work on COC1CCN(C(=O)c2cn(Cc3ccc(F)cc3)c3cnc4c(c23)CCN(O)C4=O)CC1 [Example 15, 3-(4-fluorobenzyl)-7-hydroxy-1-[(4-methoxypiperidin-1-yl)carbonyl]-3,7,8,9-tetrahydro-6H-pyrrolo[2,3-c]-1,7-naphthyridin-6-one] yielded an IC50 [1, 3] of 14 nM and an EC50 [2, 5] of 28 nM.
CN1CCN(C(=O)c2cn(Cc3ccc(F)cc3)c3cnc4c(c23)CCN(O)C4=O)CC1 [Example 17, 3-(4-fluorobenzyl)-7-hydroxy-1-[(4-methylpiperazin-1-yl)carbonyl]-3,7,8,9-tetrahydro-6H-pyrrolo[2,3-c]-1,7-naphthyridin-6-one] was tested, and the IC50 [1, 3] was 17 nM and the EC50 [2, 5] was 150 nM.
COC[C@H]1CCCN1C(=O)c1cn(Cc2ccc(F)cc2)c2cnc3c(c12)CCN(O)C3=O [Example 19, 3-(4-fluorobenzyl)-7-hydroxy-1-{[(2R)-2-(methoxymethyl)pyrrolidin-1-yl]carbonyl}-3,7,8,9-tetrahydro-6H-pyrrolo[2,3-c]-1,7-naphthyridin-6-one] gave an IC50 [1, 3] of 36 nM and an EC50 [2, 5] of 4.5 nM.
O=C1c2ncc3c(c(CN4CCC(F)(F)C4)cn3Cc3ccc(F)cc3)c2CCN1O [Example 37, 1-[(3,3-difluoropyrrolidin-1-yl)methyl]-3-(4-fluorobenzyl)-7-hydroxy-3,7,8,9-tetrahydro-6H-pyrrolo[2,3-c]-1,7-naphthyridin-6-one] showed an EC50 [2, 5] of 1.5 nM.
Work on O=C1c2ncc3c(c(CN4CCCCC4)cn3Cc3ccc(F)cc3)c2CCN1O [Example 38, 3-(4-fluorobenzyl)-7-hydroxy-1-(piperidin-1-ylmethyl)-3,7,8,9-tetrahydro-6H-pyrrolo[2,3-c]-1,7-naphthyridin-6-one] yielded an EC50 [2, 5] of 5.4 nM.
COCCN(C)Cc1cn(Cc2ccc(F)cc2)c2cnc3c(c12)CCN(O)C3=O [Example 77, 3-(4-fluorobenzyl)-7-hydroxy-1-{[(2-methoxyethyl)(methyl)amino]methyl}-3,7,8,9-tetrahydro-6H-pyrrolo[2,3-c]-1,7-naphthyridin-6-one] gave an EC50 [2, 5] of 2 nM.
For O=C1c2ncc3[nH]ccc3c2CCN1O [Example 83, 7-hydroxy-3,7,8,9-tetrahydro-6H-pyrrolo[2,3-c]-1,7-naphthyridin-6-one], the EC50 [2, 4] was 14 nM.
N#Cc1cc(F)ccc1Cn1ccc2c3c(ncc21)C(=O)N(O)CC3 [Example 91, 5-fluoro-2-[(7-hydroxy-6-oxo-6,7,8,9-tetrahydro-3H-pyrrolo[2,3-c]-1,7-naphthyridin-3-yl)methyl]benzonitrile] was tested, and the EC50 [2, 5] was 2 nM.
